This test deals with colonic propulsive motility in mice. In words: Glass bead test of colonic propulsive motility in mice. The conditions noted are these: for Expulsion Time (min.) Mean ± SEM: 3 mm glass bead inserted 30 min after dosing, female Swiss Webster mice.

The results in this text go back to patent US6683072B1, “Compositions and methods for treatment of irritable bowel syndrome and nonulcer dyspepsia” (Vela Pharmaceuticals, Inc., priority 2003, dated 2004).

As usually defined, the inhibition is the share of the control response that was lost under treatment. Read a low inhibition as a response near the control. `CN(C)C(=O)C(CCN1CCC(O)(c2ccc(Cl)cc2)CC1)(c1ccccc1)c1ccccc1` [loperamide]: the “Expulsion Time (min.) Mean ± SEM” value (10 mg/kg PO) was 26.0 ± 2.6 min. Besides, under “Mus musculus, po”, the inhibition at 10 mg/kg came out at 81%.
For the compound `CN1c2ccccc2C(NCCCCCCC(=O)O)c2ccc(Cl)cc2S1(=O)=O` (stereo not shown) [tianeptine, 7-[(3-chloro-6,11-dihydro-6-methyl-dibenzo[c,f][1,2]thiazepin-11-yl)amino] heptanoic acid S,S-dioxide], the “Expulsion Time (min.) Mean ± SEM” value (10 mg/kg PO) came to 16.6 ± 3.6 min. The “Expulsion Time (min.) Mean ± SEM” value (30 mg/kg PO) worked out at 25.7 ± 2.3 min. Besides, the “effect compared with 10 mg/kg dose of loperamide” value (30 mg/kg tianeptine PO) was “equivalent in effect to a 10 mg/kg dose of loperamide”. Also, the “Expulsion Time (min.) Mean ± SEM” value (60 mg/kg PO) is 29.8 ± 0.2 min. The “effect on colonic propulsion (in words)” value (10, 30 and 60 mg/kg PO) is “dose-related inhibition of colonic propulsion”. For the same compound, under “Mus musculus, po”, testing at 10 mg/kg gave an inhibition of 38%, the inhibition at 30 mg/kg came out at 80% and at 60 mg/kg the inhibition was 98%.
